According to patent US20240390285A1, “HIGH-DOSE COMPRESSIBLE DOSAGE FORMS MANUFACTURED BY SIMULTANEOUS MELT-COATING AND MELT-GRANULATION OF ACTIVE PHARMACEUTICAL INGREDIENTS” (Rutgers, The State University of New Jersey, priority 2021, published 2024):
Where “and” joins values, the source holds several entries; their conditions need not be identical. Equal entries are not always repeated. Where two headings read alike, the source gives them in different places.

Legend:
[1] = Percent loss-on-drying (LOD); assay type: physicochemical
[2] = Granule tabletability, […] compactor simulator; assay type: physicochemical; settings: 600 mg darunavir, 12 mm
Experimental: This provided an assessment of granule tabletability using a […] compactor simulator, producing 12 mm flat cylindrical tablets having a thickness of approximately 4.6 mm.
The processing parameters for the granules in table 8 were: 0.4 kg/h throughput, 300 rpm screw speed, 60° C. processing temperature.
The granules were blended with 1% of MgSt and formed into tablets using […] tooling.

[3] = cited from earlier work
[4] = cited from earlier work; remark: listed apart in the source
[5] = tablet 96% darunavir + 1% MgSt + 3% CMC-Na, avg. pre-compression force 1.54-1.84 kN
[6] = tablet 99% darunavir + 1% MgSt, avg. pre-compression force 1.67-1.80 kN
[7] = tablet 99% darunavir + 1% MgSt, avg. pre-compression force 9.59-10.16 kN

Row | SMILES | percent loss-on-drying, Avg. ([1]; average of 3 samples) [%] | percent loss-on-drying (weight loss due to moisture evaporation) ([1]; individual Samples 1-3, listed as Pure Darunavir) | Avg. Crushing Force/Hardness [2, 5] [N] | Tablet density [2, 5] [g/mL] | Tensile Strength [2, 5] [MPa] | Avg. Crushing Force/Hardness [2, 6] [N] | Tablet density [2, 6] [g/mL] | Tensile Strength [2, 6] [MPa] | Avg. Crushing Force/Hardness [2, 7] [N] | Tablet density [2, 7] [g/mL] | Tensile Strength [2, 7] [MPa] | solubility ([3]; pH of 2.0-5.5) | solubility ([3]; pH of 5.5-6.1) | dissociation constant, pKa [4]
1 | CC(C)CN(C[C@@H](O)[C@H](Cc1ccccc1)NC(=O)O[C@H]1CO[C@H]2OCC[C@H]21)S(=O)(=O)c1ccc(N)cc1 [darunavir, Darunavir] | 4.42 | 4.36% and 4.28% and 4.63% | 65.3 | 1.16 | 0.76 | 42.9 | 1.14 | 0.49 | 36.8 | 1.15 | 0.42 |  |  | 
2 | NC(=O)c1nc(F)c[nH]c1=O [favipiravir, 6-fluoro-3-oxo-3,4-dihydropyrazine-2-carboxamide] |  |  |  |  |  |  |  |  |  |  |  | only slightly soluble | sparingly soluble | 5.1
